Test results from article PMC6646235, “Structure and ligand binding of As-p18, an extracellular fatty acid binding protein from the eggs of a parasitic nematode” (Bioscience Reports, 2019).

Key:
As-p18 [1] = target: T1, As-p18 (Ascaris suum, UniProt P55776); experiment: isothermal titration calorimetry; complex also solved by solution NMR; type: binding
T1 construct: mature protein without secretion signal peptide, N-terminal His-tag (pQE-30/As-p18), expressed in E. coli BL21 (DE3); monomer; delipidated by RP-HPLC for NMR, co-purified lipid retained for crystal
T1 sequence (P55776 21-163): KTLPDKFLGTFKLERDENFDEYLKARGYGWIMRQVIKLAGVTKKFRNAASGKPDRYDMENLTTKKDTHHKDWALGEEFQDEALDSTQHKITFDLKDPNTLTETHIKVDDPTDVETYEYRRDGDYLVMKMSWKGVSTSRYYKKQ

As-p18 [2] = target: T1, As-p18; experiment: X-ray crystallography at […] Å; GC-MS of co-purified lipid; type: binding; settings: co-purified from E. coli; pH 4.5 crystal; ligand density incomplete, vaccenate modelled

| Compound | Kd (As-p18 [1]) | X-ray crystallography at 2.3 Å; GC-MS of co-purified lipid (As-p18 [2]) |
| --- | --- | --- |
| CCCCCCCC/C=C\CCCCCCCC(=O)O [oleic acid] | 3.1 µM |  |
| CCCCCC/C=C\CCCCCCCCCC(=O)O [vaccenate, cis-11-octadecenoate] |  | The two X-ray structures of As-p18 in complex with vaccenate |
